Results reported in the supplement of paper PMC5579334.

Experiments:
STS26T [1] = assay: relative IC50 (inflection point of fitted dose-response curve, CellTiter-Glo viability, 72 h; top asymptote may be below 50% inhibition); higher = less potent
Procedure, shortened: (§1)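 After seeding 750–1000 cells per well of MPNST cell lines or primary human Schwann cells into 384-well plates preprinted with each compound at five concentrations in 10-fold steps, plates were kept 72 h at 37 °C, 5% CO2. Viability was read as CellTiter-Glo ATP luminescence relative to vehicle and positive-control wells, with duplicates averaged where present. The data were fitted with four-parameter logistic models. Drug sensitivity score and relative IC50, censored at the top concentration, derive from the fits, and percent inhibition refers to the top concentration.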

HSC2 [2] = assay: as above
Procedure, shortened: as §1

HS-Sch-2 = assay: as above
Procedure, shortened: as §1

ST8814 [3] = assay: as above
Procedure, shortened: as §1

HS-PSS [4] = assay: as above
Procedure, shortened: as §1

YST-1 = assay: as above
Procedure, shortened: as §1

HSC1 [5] = assay: as above
Procedure, shortened: as §1

STS26T [6] = assay: relative IC50 (inflection point of fitted dose-response curve, CellTox-Green cytotoxicity, 72 h; top asymptote may be below 50%); higher = less potent
Procedure, shortened: (§2)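 For 72 h at 37 °C, MPNST cell lines and primary human Schwann cells were exposed in 384-well plates to five 10-fold compound dilutions. CellTox-Green, added before seeding at a final 1:1000 dilution, gave fluorescence from DNA released by disrupted cells. Signals were scaled to vehicle and positive-control wells, cultures failing plate quality control were left out, and four-parameter logistic fits were applied. Relative IC50 and drug sensitivity score were derived from the fits, with IC50 censored at the top concentration.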

HSC2 [7] = assay: as above
Procedure, shortened: as §2

ST8814 [8] = assay: as above
Procedure, shortened: as §2

S1507-2 = assay: as above
Procedure, shortened: as §2

HS-PSS [9] = assay: as above
Procedure, shortened: as §2

HSC1 [10] = assay: as above
Procedure, shortened: as §2

S462 = assay: relative IC50 (inflection point of fitted dose-response curve, CellTiter-Glo viability, 72 h; top asymptote may be below 50% inhibition); higher = less potent
Procedure, shortened: as §1

SMILES	relative IC50 (STS26T [1]) [nM]	relative IC50 (HSC2 [2]) [nM]	relative IC50 (HS-Sch-2) [nM]	relative IC50 (ST8814 [3]) [nM]	relative IC50 (HS-PSS [4]) [nM]	relative IC50 (YST-1) [nM]	relative IC50 (HSC1 [5]) [nM]	relative IC50 (STS26T [6]) [nM]	relative IC50 (HSC2 [7]) [nM]	relative IC50 (ST8814 [8]) [nM]	relative IC50 (S1507-2) [nM]	relative IC50 (HS-PSS [9]) [nM]	relative IC50 (HSC1 [10]) [nM]	relative IC50 (S462) [nM]
Cc1ccc(C(=O)N(CCCN)[C@@H](c2oc3cc(Cl)ccc3c(=O)c2Cc2ccccc2)C(C)C)cc1	> 100	> 100	1.66	> 100	1.29	0.94	> 100	> 100	> 100	> 100	> 100	> 100	> 100	
CC(=O)OC[C@H]1O[C@@H]([S-])[C@H](OC(C)=O)[C@@H](OC(C)=O)[C@@H]1OC(C)=O.CCP(CC)CC.[Au+] [Auranofin]	610	462	362	779	668	805	387	697	575		> 2500	754	516	449
C[C@@H]1C[C@H]2[C@@H]3CCC4=CC(=O)C=C[C@]4(C)[C@@]3(F)[C@@H](O)C[C@]2(C)[C@@]1(O)C(=O)CO [Dexamethasone]	> 10000	> 10000			> 10000		> 10000	> 10000	> 10000	> 10000	> 10000	> 10000	> 10000	
C=C1C[C@@H]2[C@H](CC[C@]3(C)C(=O)CC[C@@H]23)[C@@]2(C)C=CC(=O)C=C12 [Exemestane]	> 10000	> 10000		> 10000	1760	> 10000	> 10000	> 10000	> 10000	> 10000	> 10000	> 10000	> 10000	
O=c1[nH]c(=O)n([C@H]2C[C@H](O)[C@@H](CO)O2)cc1F [Floxuridine]	37.9	127	173	123	1480	101	752	253		729	> 10000	> 10000	3230	53.4
Nc1nc(F)nc2c1ncn2[C@@H]1O[C@H](CO)[C@@H](O)[C@@H]1O [Fludarabine]	1650	2720	2200	> 10000		3480	3610	> 10000	> 10000	> 10000	> 10000	> 10000	> 10000	
O=c1[nH]cc(F)c(=O)[nH]1 [Fluorouracil]	907	3290	2870	> 10000	3570	3280	3580		> 10000	> 10000	> 10000	> 10000	> 10000	
NC(=O)NO [Hydroxyurea]	> 100000			> 100000	> 100000			> 100000	> 100000	> 100000	> 100000	> 100000	> 100000	> 100000
O=C(O)CNC(=O)c1c(O)c2ccccc2n(Cc2ccccc2)c1=O [IOX-2]			12500	8420	10300		> 50000	> 50000	> 50000	> 50000	> 50000	> 50000	> 50000	
CC[C@H](Nc1ncnc2[nH]cnc12)c1nc2cccc(F)c2c(=O)n1-c1ccccc1 [Idelalisib]	1540	> 10000	> 10000		> 10000	1040	> 10000		511	> 10000	> 10000	> 10000	> 10000	> 10000
Nc1cccc2c1CN(C1CCC(=O)NC1=O)C2=O (centres undefined) [Lenalidomide]	> 10000			> 10000	> 100000			> 10000	1870	> 10000	> 10000	> 100000	> 10000	> 10000
Cc1ccc(F)c(NC(=O)Nc2ccc(-c3cccc4[nH]nc(N)c34)cc2)c1 [Linifanib]	> 1000		> 1000		> 1000	> 1000	> 1000	> 1000	> 1000	> 1000	> 1000	> 1000	> 1000	
Cn1cnc2c(F)c(Nc3ccc(Br)cc3F)c(C(=O)NOCCO)cc21 [MEK-162]		> 1000						> 1000	> 1000	> 1000	> 1000		> 1000	124
NC1(c2ccc(-c3nc4ccn5c(=O)[nH]nc5c4cc3-c3ccccc3)cc2)CCC1 [MK-2206]	118	> 1000		> 1000		128		> 1000	> 1000	> 1000	> 1000	> 1000	> 1000	
N[C@@H](Cc1ccc(N(CCCl)CCCl)cc1)C(=O)O [Melphalan aq]	> 12500	> 12500		> 12500				> 12500	> 12500	> 12500	> 12500		> 12500	> 12500
